Measured values as given in ChEMBL document CHEMBL1146654, “3-(7-Azaindolyl)-4-arylmaleimides as potent, selective inhibitors of glycogen synthase kinase-3” (Bioorg Med Chem Lett, 2004).

Assays:
[1] = molecular target: Ca2+/calmodulin-dependent protein kinase II (CaM kinase II) (Rattus norvegicus) (UniProt P11275+P08413+P15791+P11730); test: Inhibition of Calcium/calmodulin-dependent protein kinase type II; format: protein assay; design: scale not given: the % may be the effect or the level left
[2] = molecular target: T1, Calcium/calmodulin-dependent protein kinase type IV (Homo sapiens) (UniProt Q16566); test: Inhibition of Calcium/calmodulin-dependent protein kinase type IV; design: scale not given: the % may be the effect or the level left
T1 sequence (whole entry): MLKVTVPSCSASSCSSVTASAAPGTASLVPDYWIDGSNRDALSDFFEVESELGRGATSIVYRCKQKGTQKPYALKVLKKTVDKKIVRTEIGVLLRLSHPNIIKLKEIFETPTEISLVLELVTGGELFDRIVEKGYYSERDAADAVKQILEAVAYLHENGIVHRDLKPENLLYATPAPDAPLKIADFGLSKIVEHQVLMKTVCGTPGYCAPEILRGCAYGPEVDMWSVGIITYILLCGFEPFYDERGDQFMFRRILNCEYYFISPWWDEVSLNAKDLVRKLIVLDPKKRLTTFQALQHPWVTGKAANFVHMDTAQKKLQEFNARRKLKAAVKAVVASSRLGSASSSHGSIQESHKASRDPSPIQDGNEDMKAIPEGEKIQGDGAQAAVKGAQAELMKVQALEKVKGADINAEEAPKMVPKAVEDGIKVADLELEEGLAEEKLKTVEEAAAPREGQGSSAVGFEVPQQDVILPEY

[3] = molecular target: Cyclin-dependent kinase 2/cyclin A (Homo sapiens) (UniProt P24941+P20248+P78396); test: Inhibition of Cyclin-dependent kinase 2-cyclin A; format: protein-complex assay; design: scale not given: the % may be the effect or the level left
[4] = molecular target: CDK3/cyclin E (Homo sapiens) (UniProt P24864+O96020+Q00526); test: Inhibition of Cyclin-dependent kinase 3-cyclin E; format: protein-complex assay; design: scale not given: the % may be the effect or the level left
[5] = molecular target: Cyclin-dependent kinase 5/CDK5 activator 1 (Homo sapiens) (UniProt Q00535+Q15078); test: Inhibition of Cyclin-dependent kinase 5-p35nck5a; format: protein-complex assay; design: scale not given: the % may be the effect or the level left
Sequence of Cyclin-dependent kinase 5/CDK5 activator 1 (Homo sapiens) (Q00535 whole entry): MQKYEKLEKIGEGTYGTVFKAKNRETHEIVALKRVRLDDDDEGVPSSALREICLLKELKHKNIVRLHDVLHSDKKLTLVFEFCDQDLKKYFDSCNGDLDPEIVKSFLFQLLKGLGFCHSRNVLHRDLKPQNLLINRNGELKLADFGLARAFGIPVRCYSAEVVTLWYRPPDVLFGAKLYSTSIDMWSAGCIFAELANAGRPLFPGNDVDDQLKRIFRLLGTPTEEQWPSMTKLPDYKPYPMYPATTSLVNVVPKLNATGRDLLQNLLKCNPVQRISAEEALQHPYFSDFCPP
Sequence of Cyclin-dependent kinase 5/CDK5 activator 1 (Homo sapiens) (Q15078 99-307 partner limits assumed): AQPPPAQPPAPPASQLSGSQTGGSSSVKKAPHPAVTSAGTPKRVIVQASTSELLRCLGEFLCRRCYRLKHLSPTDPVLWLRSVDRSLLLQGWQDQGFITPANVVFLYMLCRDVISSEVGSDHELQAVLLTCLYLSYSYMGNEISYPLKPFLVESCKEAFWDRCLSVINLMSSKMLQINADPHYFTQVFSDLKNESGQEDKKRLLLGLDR

[6] = molecular target: Fibroblast growth factor receptor 3 (Homo sapiens) (UniProt P22607); test: Inhibition of Fibroblast growth factor receptor 3; design: scale not given: the % may be the effect or the level left
[7] = molecular target: Tyrosine-protein kinase Fyn (Homo sapiens) (UniProt P06241); test: Inhibition of Fyn protein kinase; design: scale not given: the % may be the effect or the level left
Sequence of Tyrosine-protein kinase Fyn (Homo sapiens) (P06241 2-537 limits assumed): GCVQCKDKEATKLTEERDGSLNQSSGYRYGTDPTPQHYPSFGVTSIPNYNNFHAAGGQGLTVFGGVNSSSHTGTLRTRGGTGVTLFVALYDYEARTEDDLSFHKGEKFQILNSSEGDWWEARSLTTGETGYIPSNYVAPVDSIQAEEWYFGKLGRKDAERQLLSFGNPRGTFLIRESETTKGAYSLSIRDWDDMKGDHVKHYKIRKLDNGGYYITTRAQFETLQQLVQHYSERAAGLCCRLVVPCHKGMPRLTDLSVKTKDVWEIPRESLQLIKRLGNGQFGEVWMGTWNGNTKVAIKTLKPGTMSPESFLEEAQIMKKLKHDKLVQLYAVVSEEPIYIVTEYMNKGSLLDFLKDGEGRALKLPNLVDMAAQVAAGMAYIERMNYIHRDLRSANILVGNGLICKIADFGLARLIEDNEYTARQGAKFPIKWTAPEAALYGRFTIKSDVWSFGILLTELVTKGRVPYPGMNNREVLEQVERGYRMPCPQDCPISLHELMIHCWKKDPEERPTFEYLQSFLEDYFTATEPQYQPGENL

[8] = molecular target: Glycogen synthase kinase-3 beta (Homo sapiens, UniProt P49841); test: Inhibition of glycogen synthase kinase-3 beta; design: scale not given: the % may be the effect or the level left
Sequence of Glycogen synthase kinase-3 beta (P49841 whole entry, looked up): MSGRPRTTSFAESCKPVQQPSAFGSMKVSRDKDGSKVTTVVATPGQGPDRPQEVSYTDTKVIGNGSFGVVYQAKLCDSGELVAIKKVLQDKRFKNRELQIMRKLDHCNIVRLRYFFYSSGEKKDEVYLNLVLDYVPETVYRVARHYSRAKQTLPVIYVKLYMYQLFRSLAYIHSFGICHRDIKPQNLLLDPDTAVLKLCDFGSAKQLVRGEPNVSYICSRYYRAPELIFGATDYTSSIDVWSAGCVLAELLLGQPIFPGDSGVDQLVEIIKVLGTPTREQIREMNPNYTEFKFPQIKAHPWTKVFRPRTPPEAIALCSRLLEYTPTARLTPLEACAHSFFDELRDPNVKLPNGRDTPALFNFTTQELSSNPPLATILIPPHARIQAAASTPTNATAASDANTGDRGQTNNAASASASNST

[9] = molecular target: Insulin receptor (Homo sapiens) (UniProt P06213); test: Inhibition of IR kinase; design: scale not given: the % may be the effect or the level left
[10] = molecular target: T2, Dual specificity mitogen-activated protein kinase kinase 6 (Homo sapiens) (UniProt P52564); test: Inhibition of Mitogen activated protein kinase kinase 6; design: scale not given: the % may be the effect or the level left
T2 sequence (whole entry): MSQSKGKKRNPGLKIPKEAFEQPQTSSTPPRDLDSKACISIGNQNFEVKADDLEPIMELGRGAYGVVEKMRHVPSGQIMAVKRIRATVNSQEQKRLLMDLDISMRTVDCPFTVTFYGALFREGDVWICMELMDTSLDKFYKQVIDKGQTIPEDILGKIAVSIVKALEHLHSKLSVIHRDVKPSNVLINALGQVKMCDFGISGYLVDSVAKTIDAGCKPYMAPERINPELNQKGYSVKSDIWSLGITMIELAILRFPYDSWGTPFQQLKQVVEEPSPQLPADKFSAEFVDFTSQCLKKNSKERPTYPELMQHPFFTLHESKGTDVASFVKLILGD

[11] = molecular target: Protein kinase C beta type (Homo sapiens, UniProt P05771); test: Inhibition of PKCbetaII; design: scale not given: the % may be the effect or the level left
[12] = molecular target: Protein kinase C alpha type (Homo sapiens, UniProt P17252); test: Inhibitory activity of 10 uM compound against protein kinase C-alpha using histone as substrate
[13] = molecular target: RAC-beta serine/threonine-protein kinase (Homo sapiens) (UniProt P31751); test: Inhibition of PKBbeta; design: scale not given: the % may be the effect or the level left
[14] = molecular target: Serine/threonine-protein kinase PAK 2 (Homo sapiens) (UniProt Q13177); test: Inhibition of PAK2; design: scale not given: the % may be the effect or the level left
Sequence of Serine/threonine-protein kinase PAK 2 (Homo sapiens) (Q13177 whole entry): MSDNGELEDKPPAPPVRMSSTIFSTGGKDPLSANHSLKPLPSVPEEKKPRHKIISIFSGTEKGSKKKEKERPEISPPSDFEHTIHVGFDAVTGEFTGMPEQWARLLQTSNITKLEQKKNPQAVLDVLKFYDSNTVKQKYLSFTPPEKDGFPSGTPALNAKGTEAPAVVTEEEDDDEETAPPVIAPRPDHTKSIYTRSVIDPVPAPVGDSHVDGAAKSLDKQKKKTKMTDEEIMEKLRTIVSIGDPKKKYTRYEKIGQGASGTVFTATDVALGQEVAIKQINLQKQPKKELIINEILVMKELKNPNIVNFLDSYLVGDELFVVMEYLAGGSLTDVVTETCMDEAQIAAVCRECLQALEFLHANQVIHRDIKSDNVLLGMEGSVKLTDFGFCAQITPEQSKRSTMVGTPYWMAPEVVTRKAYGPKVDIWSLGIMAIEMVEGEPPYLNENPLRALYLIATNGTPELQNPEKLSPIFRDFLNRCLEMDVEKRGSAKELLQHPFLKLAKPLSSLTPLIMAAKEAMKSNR

[15] = molecular target: RAF proto-oncogene serine/threonine-protein kinase (Homo sapiens) (UniProt P04049); test: Inhibition of RAF proto-oncogene serine/threonine-protein kinase; design: scale not given: the % may be the effect or the level left
[16] = molecular target: Tyrosine-protein kinase Lyn (Mus musculus) (UniProt P25911); test: Inhibition of Protein tyrosine kinase Lyn; design: scale not given: the % may be the effect or the level left
Sequence of Tyrosine-protein kinase Lyn (Mus musculus) (P25911 whole entry): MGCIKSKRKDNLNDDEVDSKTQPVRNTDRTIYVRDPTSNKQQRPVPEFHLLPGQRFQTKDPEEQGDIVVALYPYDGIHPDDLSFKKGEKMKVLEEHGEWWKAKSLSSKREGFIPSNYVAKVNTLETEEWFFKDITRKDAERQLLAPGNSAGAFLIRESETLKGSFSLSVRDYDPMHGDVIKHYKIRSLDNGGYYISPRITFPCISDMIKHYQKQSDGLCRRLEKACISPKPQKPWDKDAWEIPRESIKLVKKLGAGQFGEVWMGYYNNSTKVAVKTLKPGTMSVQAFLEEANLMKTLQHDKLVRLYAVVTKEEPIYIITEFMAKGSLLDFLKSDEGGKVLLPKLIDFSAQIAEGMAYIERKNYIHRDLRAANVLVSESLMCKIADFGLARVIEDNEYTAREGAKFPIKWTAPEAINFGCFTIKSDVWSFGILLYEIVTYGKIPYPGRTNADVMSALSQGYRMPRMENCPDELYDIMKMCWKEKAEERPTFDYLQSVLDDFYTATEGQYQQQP

[17] = molecular target: Rho-associated protein kinase 2 (Homo sapiens) (UniProt O75116); test: (§1) Inhibition of ROCK-II; design: scale not given: the % may be the effect or the level left
[18] = molecular target: Rho-associated protein kinase 2 (Rattus norvegicus) (UniProt Q62868); test: as §1; design: scale not given: the % may be the effect or the level left
Sequence of Rho-associated protein kinase 2 (Rattus norvegicus) (Q62868 whole entry, looked up): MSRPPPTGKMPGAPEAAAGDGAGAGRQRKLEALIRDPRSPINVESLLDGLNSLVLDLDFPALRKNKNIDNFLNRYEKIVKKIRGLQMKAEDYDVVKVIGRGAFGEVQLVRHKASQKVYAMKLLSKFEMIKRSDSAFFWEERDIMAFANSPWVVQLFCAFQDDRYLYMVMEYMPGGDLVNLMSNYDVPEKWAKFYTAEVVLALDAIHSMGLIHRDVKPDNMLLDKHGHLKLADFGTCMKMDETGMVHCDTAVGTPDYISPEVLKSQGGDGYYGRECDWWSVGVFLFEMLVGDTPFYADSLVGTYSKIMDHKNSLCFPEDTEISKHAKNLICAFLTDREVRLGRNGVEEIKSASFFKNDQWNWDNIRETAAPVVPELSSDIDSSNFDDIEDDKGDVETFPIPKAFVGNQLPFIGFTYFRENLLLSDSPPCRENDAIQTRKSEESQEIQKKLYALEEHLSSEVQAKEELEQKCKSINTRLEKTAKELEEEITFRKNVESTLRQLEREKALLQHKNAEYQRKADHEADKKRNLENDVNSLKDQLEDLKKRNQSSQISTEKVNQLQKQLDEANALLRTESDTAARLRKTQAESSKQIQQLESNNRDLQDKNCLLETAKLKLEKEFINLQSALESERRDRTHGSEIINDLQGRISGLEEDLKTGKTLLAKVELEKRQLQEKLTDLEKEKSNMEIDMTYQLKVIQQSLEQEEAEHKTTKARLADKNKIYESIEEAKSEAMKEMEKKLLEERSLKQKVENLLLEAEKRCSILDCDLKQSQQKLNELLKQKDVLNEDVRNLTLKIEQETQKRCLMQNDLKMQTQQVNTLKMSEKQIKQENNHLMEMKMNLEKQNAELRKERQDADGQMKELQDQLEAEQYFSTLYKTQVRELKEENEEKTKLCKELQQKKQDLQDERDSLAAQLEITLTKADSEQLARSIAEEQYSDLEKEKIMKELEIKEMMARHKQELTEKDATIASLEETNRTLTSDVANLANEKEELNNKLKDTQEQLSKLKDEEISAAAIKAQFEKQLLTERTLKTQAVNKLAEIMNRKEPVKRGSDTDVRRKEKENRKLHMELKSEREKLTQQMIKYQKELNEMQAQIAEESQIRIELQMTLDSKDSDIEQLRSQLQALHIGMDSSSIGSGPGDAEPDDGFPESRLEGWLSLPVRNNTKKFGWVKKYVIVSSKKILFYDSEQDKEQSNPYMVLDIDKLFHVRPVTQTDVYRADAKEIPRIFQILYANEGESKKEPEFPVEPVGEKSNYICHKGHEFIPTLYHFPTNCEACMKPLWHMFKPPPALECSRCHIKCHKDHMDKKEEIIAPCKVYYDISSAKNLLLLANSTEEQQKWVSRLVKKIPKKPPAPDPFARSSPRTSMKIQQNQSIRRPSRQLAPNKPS

[19] = molecular target: Ribosomal protein S6 kinase alpha-2 (Homo sapiens) (UniProt Q15349); test: Inhibition of Ribosomal S6 kinase 2; design: scale not given: the % may be the effect or the level left
[20] = molecular target: Tyrosine-protein kinase SYK (Homo sapiens) (UniProt P43405); test: Inhibition of Syk protein tyrosine kinase; design: scale not given: the % may be the effect or the level left
[21] = molecular target: Mitogen-activated protein kinase 9 (Homo sapiens) (UniProt P45984); test: Inhibition of c-Jun N-terminal kinase 2-alpha 2; design: scale not given: the % may be the effect or the level left
[22] = molecular target: Tyrosine-protein kinase Yes (Homo sapiens) (UniProt P07947); test: Inhibition of Yes tyrosine kinase; design: scale not given: the % may be the effect or the level left
[23] = molecular target: T3, Tyrosine-protein kinase ZAP-70 (Homo sapiens) (UniProt P43403); test: Inhibition of Zeta-chain (TCR) associated protein kinase 70 kDa (ZAP70); design: scale not given: the % may be the effect or the level left
T3 sequence (whole entry): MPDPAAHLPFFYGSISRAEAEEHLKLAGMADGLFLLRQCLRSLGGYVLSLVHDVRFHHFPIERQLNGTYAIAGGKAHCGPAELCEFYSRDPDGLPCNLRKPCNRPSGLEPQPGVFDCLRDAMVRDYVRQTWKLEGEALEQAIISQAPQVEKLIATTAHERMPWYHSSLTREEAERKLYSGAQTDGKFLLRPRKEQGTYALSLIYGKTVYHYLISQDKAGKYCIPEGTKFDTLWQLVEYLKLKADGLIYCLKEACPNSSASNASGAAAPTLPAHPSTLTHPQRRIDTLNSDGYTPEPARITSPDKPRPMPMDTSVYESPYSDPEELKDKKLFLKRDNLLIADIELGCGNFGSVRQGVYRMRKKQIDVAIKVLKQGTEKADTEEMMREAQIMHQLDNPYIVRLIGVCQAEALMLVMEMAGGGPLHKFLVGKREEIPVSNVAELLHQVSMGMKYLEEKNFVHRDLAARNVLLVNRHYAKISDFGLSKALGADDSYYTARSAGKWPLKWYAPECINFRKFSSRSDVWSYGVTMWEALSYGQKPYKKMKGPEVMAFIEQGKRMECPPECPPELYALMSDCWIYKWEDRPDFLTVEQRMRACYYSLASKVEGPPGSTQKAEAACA

[24] = molecular target: Tyrosine-protein kinase Lck (Homo sapiens) (UniProt P06239); test: Inhibition of p56 Lck tyrosine kinase; design: scale not given: the % may be the effect or the level left
Sequence of Tyrosine-protein kinase Lck (Homo sapiens) (P06239 2-509 limits assumed): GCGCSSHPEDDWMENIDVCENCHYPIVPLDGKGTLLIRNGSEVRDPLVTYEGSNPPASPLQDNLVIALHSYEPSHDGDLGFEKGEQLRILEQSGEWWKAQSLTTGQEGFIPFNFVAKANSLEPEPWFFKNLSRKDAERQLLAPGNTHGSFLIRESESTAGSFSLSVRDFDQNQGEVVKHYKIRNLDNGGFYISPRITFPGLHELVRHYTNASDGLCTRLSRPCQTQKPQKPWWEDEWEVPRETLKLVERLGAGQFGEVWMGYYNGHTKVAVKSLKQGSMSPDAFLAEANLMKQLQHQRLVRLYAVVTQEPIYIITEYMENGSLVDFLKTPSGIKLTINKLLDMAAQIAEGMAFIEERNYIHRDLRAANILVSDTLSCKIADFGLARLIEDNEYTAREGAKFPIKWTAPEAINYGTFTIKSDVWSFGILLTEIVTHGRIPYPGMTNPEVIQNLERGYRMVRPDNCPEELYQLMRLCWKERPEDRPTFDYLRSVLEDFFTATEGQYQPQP

[25] = molecular target: Mitogen-activated protein kinase 10 (Rattus norvegicus) (UniProt P49187); test: Inhibition of c-Jun N-terminal kinase 3; design: scale not given: the % may be the effect or the level left
Sequence of Mitogen-activated protein kinase 10 (Rattus norvegicus) (P49187 whole entry, looked up): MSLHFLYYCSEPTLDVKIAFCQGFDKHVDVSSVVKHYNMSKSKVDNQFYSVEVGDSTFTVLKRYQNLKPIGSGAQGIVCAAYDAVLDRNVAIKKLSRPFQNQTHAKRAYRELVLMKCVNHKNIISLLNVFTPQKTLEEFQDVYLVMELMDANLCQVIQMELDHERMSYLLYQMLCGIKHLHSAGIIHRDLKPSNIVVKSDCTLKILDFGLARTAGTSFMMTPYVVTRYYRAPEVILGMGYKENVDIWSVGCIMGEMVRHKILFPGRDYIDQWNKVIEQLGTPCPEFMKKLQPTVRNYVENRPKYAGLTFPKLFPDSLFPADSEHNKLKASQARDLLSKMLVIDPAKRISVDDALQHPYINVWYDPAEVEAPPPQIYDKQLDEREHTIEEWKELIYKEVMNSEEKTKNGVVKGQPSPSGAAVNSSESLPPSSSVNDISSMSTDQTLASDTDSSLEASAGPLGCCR

| Structure (SMILES) | Activity [1] | Activity [2] | Activity [3] | Activity [4] | Activity [5] | Activity [6] | Activity [7] | Activity [8] | Activity [9] | Activity [10] | Activity [11] | inhibition [12] | Activity [13] | Activity [14] | Activity [15] | Activity [16] | Activity [17] | Activity [18] | Activity [19] | Activity [20] | other results |
| --- | --- | --- | --- | --- | --- | --- | --- | --- | --- | --- | --- | --- | --- | --- | --- | --- | --- | --- | --- | --- | --- |
| COc1ccccc1C1=C(c2cn(CCCNC(=O)OC(C)(C)C)c3ncccc23)C(=O)NC1=O | 60% | 91% | 2% | 3% | 2% | 83% | 63% | 0% | 94% | 95% | 15% | < 50% | 99% | 93% | 92% | 20% | 78% | 91% | 31% | 88% | Activity [21]: 84%; Activity [22]: 42%; Activity [23]: 112%; Activity [24]: 67%; Activity [25]: 68% |
| COCCCn1cc(C2=C(c3ccccc3O)C(=O)NC2=O)c2cccnc21 | 63% | 82% | 9% | 26% | 9% | 79% | 94% | 1% | 88% | 83% | 32% | < 50% | 82% | 94% | 74% | 81% | 100% | 94% | 54% | 86% | Activity [21]: 63%; Activity [22]: 89%; Activity [23]: 100%; Activity [24]: 84%; Activity [25]: 52% |
| O=C1NC(=O)C(c2cn(CCCO)c3ncccc23)=C1c1ncc(C(F)(F)F)cc1Cl | 76% | 82% | 25% | 62% | 25% | 64% | 89% | 3% | 95% | 86% | 70% | < 50% | 69% | 78% | 74% | 85% | 90% | 97% | 77% | 76% | Activity [21]: 93%; Activity [22]: 93%; Activity [23]: 91%; Activity [24]: 82%; Activity [25]: 76% |
